The results in this text go back to patent publication US20030068615A1, “Polypeptides that bind HIV gp120 and related nucleic acids, antibodies, compositions, and methods of use” (priority 1999, published 2003).

Where “and” joins values, the source holds several entries; their conditions need not be identical. Equal values may be shown once. Read-outs that look alike come from different tables or passages of the source.

This test deals with HIV-1LAI envelope gp120 (Human immunodeficiency virus type 1 group M subtype B, UniProt P03377). Format: binding. The following applies: for Relative % of Control: mean of two syntheses and binding experiments ± average deviation, wild-type = 100%; for Binding Results For Window Length (counts bound-background), 9: 9-mer starting at the first residue of the printed sequence; for Counts per 20′ Average-background: CCR5 18-mer scan; for Binding Results For Window Length (counts bound-background), 12: 12-mer starting at the first residue of the printed sequence.

Where [1] appears, read: CXCR4 18-mer scan, background subtracted, empty control 0.
Setting [2] is: CXCR4 18-mer scan, empty control 412.
Setting [3] is: human CD4 21-mer scan, empty control 2075.
[4] abbreviates: Panel C, 15-mers and 18-mers of CD4, empty control 556.
The mark [5] stands for this setting: Panel B, 15-mers and 18-mers of CD4, empty control 575.
Where [6] appears, read: STRL33 amino terminus, background subtracted.
[7] abbreviates: Panel D, 9-mers and 12-mers of CD4, empty control […].
Where [8] appears, read: STRL33 18-mer scan, background subtracted, first of two count columns.
The mark [9] stands for this setting: STRL33 18-mer scan, background subtracted, second of two count columns.
[10] abbreviates: Panel E, 9-mers and 12-mers of CD4, empty control 571.
[11] abbreviates: radiolabeled HIV-1LAI gp120, background subtracted.
Where [12] appears, read: Panel A, 21-mers of CD4, empty control 515 and 617.

With FISLDRYLAIVHATNSQR, the “radioactive counts recorded in twenty minutes” value (“radioactive counts recorded” for short) runs as follows: under setting [1], 91 counts; under setting [2], 503 counts. Regarding “GELWWQAERASSSKSWITFDL [human CD4 236-256]”, under setting [3], the “number of radioactive decays (counts) counted” value (“number of radioactive decays” for short) turned out to be 2730 counts.

For the sequence ASSIVYKKEGEQVEF, the “COUNTS of radiolabeled gp120 retained” value under setting [4] was 589 counts. For LWDQGNFPLIIKNLKIED, the “COUNTS of radiolabeled gp120 retained” value under setting [5] is on record as 582 counts. Consider “MDYQASSPIYDINYYTSE [CCR5 (1-18) variant V5A]”, for which the “Relative % of Control” value (CCR5 (1-18) alanine variants) amounted to 82 ± 3%. For the sequence HQAFLQFSK, the “Binding Results For Window Length (counts bound-background), 9” value under setting [6] was found to be 2761 counts. In the case of TYICEVEDQ, the “COUNTS of radiolabeled gp120 retained” value under setting [7] was 805 counts. In the case of THLLQGQSLTLTAES, the “COUNTS of radiolabeled gp120 retained” value (Panel F, sequential alanine replacements of CD4 polypeptides, duplicate series, empty control 569) was 862 counts and 797 counts. In the case of QAKRMTWGKVTSLLIWVI, the “radioactive counts recorded” value under setting [8] is reported as −71.5 counts and the “radioactive counts recorded” value under setting [9] is reported as −31.5 counts. As for “GLVILVMGYQKKLRSMTD [CXCR4 segment 57-74]”, the “radioactive counts recorded” value is, setting by setting: under setting [1], 157 counts; under setting [2], 569 counts. On the same counts, the results for SIYTSDNYTEEMGSGDYD [CXCR4 segment 5-22] are 71 counts and 483 counts. In the case of DIVVLAFQKASS, the “COUNTS of radiolabeled gp120 retained” value under setting [10] came to 746 counts. For the sequence RNYLLVFFQKHIAKRFCK, the “Counts per 20′ Average-background” value under setting [11] is 65 counts per 20′. Consider VEDQKEEVQLLV, for which the “COUNTS of radiolabeled gp120 retained” value under setting [7] turned out to be 657 counts. For NYYTSEPCQKINVKQIAA [CCR5 segment 13-30], the “Counts per 20′ Average-background” value under setting [11] was 6 counts per 20′. On to KKEGEQVEFSFPLAF, for which, under setting [4], the “COUNTS of radiolabeled gp120 retained” value is given as 1921 counts.

As to SVYTRSTGEQEISVGL [CCR5 segment 337-], the “Counts per 20′ Average-background” value under setting [11] amounted to 47 counts per 20′. Take VSVKRVTQDPKLQMGKKLPLH: the “number of radioactive decays” value was determined as 1848 counts.

With LAFTVEKLT, the “COUNTS of radiolabeled gp120 retained” value under setting [10] was 501 counts. Take IVVVKATKAYNQQAKRMT: the “radioactive counts recorded” value was 166.5 counts under setting [8] and 43.5 counts under setting [9].

Take DTYICEVED: under setting [7], the “COUNTS of radiolabeled gp120 retained” value worked out at 1043 counts. On to KEEVQLLVFGLTANS, for which, under setting [5], the “COUNTS of radiolabeled gp120 retained” value worked out at 3485 counts.

As to FTVEKLTGSGELWWQAER, the “COUNTS of radiolabeled gp120 retained” value under setting [4] was 1143 counts. For the sequence TCSSHFPYSQYQFWKNFQ [CCR5 segment 177-], under setting [11], the “Counts per 20′ Average-background” value is on record as 367 counts per 20′. As for FIGFFSGIFFIILLTIDR, under setting [11], the “Counts per 20′ Average-background” value is given as 76 counts per 20′. For the sequence QNQKKVEFKIDIVVL, the “COUNTS of radiolabeled gp120 retained” value under setting [4] is recorded as 636 counts. For the sequence LNTFQEFFGLNNCSSSNR [CCR5 segment 257-], the “Counts per 20′ Average-background” value under setting [11] amounted to 293 counts per 20′. Turning to LLVFGLTANSDT, under setting [7], the “COUNTS of radiolabeled gp120 retained” value was found to be 533 counts.

In the case of “FLPCMYLVVFVCGLVGNS [STRL33 segment 33-50]”, the “radioactive counts recorded” value runs as follows: under setting [8], 605.5 counts; under setting [9], 372.5 counts. “FYTSMLILTCITVDRFIV [STRL33 segment 113-130]”: the “radioactive counts recorded” value runs as follows: under setting [8], 744.5 counts; under setting [9], 907.5 counts. Take NQKKVEFKIDIV: the “COUNTS of radiolabeled gp120 retained” value under setting [10] is 532 counts.

In the case of ATNSQRPRKLLAEKVVYV, the “radioactive counts recorded” value amounted to 78 counts under setting [1] and 490 counts under setting [2]. Regarding EVEDQKEEVQLL, the “COUNTS of radiolabeled gp120 retained” value under setting [7] worked out at 508 counts.

IIKNLKIEDSDTYICEVE: the “COUNTS of radiolabeled gp120 retained” value under setting [5] came to 751 counts. Regarding FQKASSIVYKKEGEQVEF, the “COUNTS of radiolabeled gp120 retained” value under setting [4] was found to be 528 counts. On to GVVTSVITWVVAVFASLP, for which, under setting [11], the “Counts per 20′ Average-background” value was found to be 69 counts per 20′. For QEEHQAFLQFSK, under setting [6], the “Binding Results For Window Length (counts bound-background), 9” value is given as 1109 counts and the “Binding Results For Window Length (counts bound-background), 12” value was found to be 5672 counts.

Turning to VLAFQKASSIVYKKE, the “COUNTS of radiolabeled gp120 retained” value under setting [4] amounted to 634 counts.

As for GLTANSDTH, the “COUNTS of radiolabeled gp120 retained” value under setting [7] worked out at 481 counts. As for FLFWAPYNIVLLLNTFQE [CCR5 segment 245-], the “Counts per 20′ Average-background” value under setting [11] is listed as 616 counts per 20′. For TVNLYSSVLILAFISLDR, the “radioactive counts recorded” value reads like this: under setting [1], 242 counts; under setting [2], 654 counts. Turning to VYKKEGEQVEFS, the “COUNTS of radiolabeled gp120 retained” value under setting [10] is listed as 584 counts. Consider EVEDQKEEV, for which the “COUNTS of radiolabeled gp120 retained” value under setting [7] was found to be 587 counts. As to WITFDLKNKEVSVKRVTQDPK, under setting [3], the “number of radioactive decays” value is recorded as 2126 counts. For PLIIKLNKIEDSDTYICEVED, the “COUNTS of radiolabeled gp120 retained” value under setting [12] stood at 20145 counts. As to PLIIKNLKI, the “COUNTS of radiolabeled gp120 retained” value under setting [7] worked out at 697 counts. Consider KIEDSDTYICEVEDQKEE, for which the “COUNTS of radiolabeled gp120 retained” value under setting [5] is 858 counts. In the case of GNFLCKAVHVIYTVNLYS, the “radioactive counts recorded” value runs as follows: under setting [1], 231 counts; under setting [2], 643 counts.

Consider SFPLAFTVEKLTGSGELW, for which, under setting [4], the “COUNTS of radiolabeled gp120 retained” value is 656 counts. As to “TIMVTEAIAYLRACLNPV [STRL33 segment 269-286]”, the “radioactive counts recorded” value by setting is: under setting [8], 140.5 counts; under setting [9], 272.5 counts.

With “VLGGVAGLLLFIGLGIFFCVR [human CD4 401-421]”, the “number of radioactive decays” value under setting [3] is recorded as 3738 counts. With DIVVLAFQKASSIVYKKEGEQ, the “COUNTS of radiolabeled gp120 retained” value under setting [12] is listed as 788 counts.

For “EEHQAFLQFSKVFLPCMY [STRL33 segment 21-38]”, the “radioactive counts recorded” value under setting [8] came out at 2316.5 counts and the “radioactive counts recorded” value under setting [9] is 1819.5 counts. As for VVFQFQHIMVGLILPGIV, the “radioactive counts recorded” value is, setting by setting: under setting [1], 589 counts; under setting [2], 1001 counts.

With VEFKIDIVV, the “COUNTS of radiolabeled gp120 retained” value under setting [10] came to 548 counts.

For “YQKKLRSMTDKYRLHLSV [CXCR4 segment 65-82]”, the “radioactive counts recorded” value runs as follows: under setting [1], 99 counts; under setting [2], 511 counts. With EDSDTYICEVED, under setting [7], the “COUNTS of radiolabeled gp120 retained” value worked out at 956 counts. Take GLTANSDTHLLQ: the “COUNTS of radiolabeled gp120 retained” value under setting [7] is recorded as 574 counts.

For the sequence GEQVEFSFPLTFTVE, the “COUNTS of radiolabeled gp120 retained” value (Panel G, alanine replacements and serial truncations (Z) of CD4 polypeptides, empty control 580) is 17397 counts and 18318 counts.

Regarding VLPTWSTPVQPMALIVLGGVA, the “number of radioactive decays” value under setting [3] stood at 2197 counts. As for MEGISIYTSDNYTEAMGS, under “CXCR4 (1-18) alanine variants”, the “Relative % of Control” value came to 56 ± 7%.

Consider VVLAFQKASSIVYKK, for which, under setting [4], the “COUNTS of radiolabeled gp120 retained” value is given as 577 counts.

On to “LTMIVCYSVIIKTLLHAG [STRL33 segment 205-222]”, for which the “radioactive counts recorded” value turned out to be 2787.5 counts under setting [8] and 2654.5 counts under setting [9]. With SDTYICEVEDQK, the “COUNTS of radiolabeled gp120 retained” value under setting [7] is 846 counts. Take EEHQAFLQFSKV: under setting [6], the “Binding Results For Window Length (counts bound-background), 9” value is 6060 counts and the “Binding Results For Window Length (counts bound-background), 12” value is listed as 5598 counts. For LIIKNLKIE, the “COUNTS of radiolabeled gp120 retained” value under setting [7] turned out to be 515 counts. Take YICEVEDQK: under setting [7], the “COUNTS of radiolabeled gp120 retained” value stood at 728 counts. Take LPYLGVSHQWKSSEDNSK: the “radioactive counts recorded” value was determined as 111.5 counts under setting [8] and 122.5 counts under setting [9]. With EEVQLLVFG, under setting [7], the “COUNTS of radiolabeled gp120 retained” value was found to be 3170 counts. Turning to LAFTVEKLTGSGELW, the “COUNTS of radiolabeled gp120 retained” value under setting [4] is 579 counts.

Take FQTLKIVILGLVLPLLVM [CCR5 segment 193-]: the “Counts per 20′ Average-background” value under setting [11] worked out at 45 counts per 20′. As for VEKLTGSGE, under setting [10], the “COUNTS of radiolabeled gp120 retained” value stood at 585 counts. With “LYAFLGAKFKTSAQHALT [CXCR4 segment 301-318]”, the “radioactive counts recorded” value is, setting by setting: under setting [1], 156 counts; under setting [2], 568 counts.

As for IVVLAFQKA, under setting [10], the “COUNTS of radiolabeled gp120 retained” value stood at 602 counts. Regarding “ILLEIIKQGCEFENTVHK [CXCR4 segment 265-282]”, the “radioactive counts recorded” value is, setting by setting: under setting [1], 117 counts; under setting [2], 529 counts. EHDYHEDYGFSSFNDSSQ: under setting [6], the “Binding Results For Window Length (counts bound-background), 9” value worked out at 509 counts and the “Binding Results For Window Length (counts bound-background), 12” value is on record as 937 counts. The “Binding Results For Window Length (counts bound-background), 15” value (STRL33 amino terminus, 15-mer starting at the first residue of the printed sequence, background subtracted) is reported as 2235 counts. Further, the “Binding Results For Window Length (counts bound-background), 18” value (STRL33 amino terminus, 18-mer starting at the first residue of the printed sequence, background subtracted) is 1219 counts.

As to QWKSSEDNSKTFSASHNV, the “radioactive counts recorded” value is on record as 464.5 counts under setting [8] and 533.5 counts under setting [9]. Consider YAFVGEKFRNYLLVFFQK [CCR5 segment 297-], for which, under setting [11], the “Counts per 20′ Average-background” value came out at 596 counts per 20′. Take “MDYQVSSPIYDINYATSE [CCR5 (1-18) variant Y15A]”: the “Relative % of Control” value (CCR5 (1-18) alanine variants) was 21 ± 5%. Besides, the “percentage of binding of mutant polypeptide compared to wild-type polypeptide, gp120” value (CCR5 alanine mutant peptide, radiolabeled HIV-1LAI gp120) came to 21%. For the sequence RMSQIKRLLSEKKTCQCPHRF, under setting [3], the “number of radioactive decays” value came out at 2020 counts.
